These results are taken from patent publication US20240299393A1, “SMALL MOLECULE DISRUPTORS OF PROTEIN INTERACTIONS IN HISTONE DEACETYLASE COMPLEXES” (Dana-Farber Cancer Institute, Inc., priority 2021, published 2024).

The target of one series is T1, human SIN3A PAH2 domain (Homo sapiens, UniProt Q96ST3).
T1 construct: Residues 301-390 of human SIN3A (PAH2 domain) were inserted into the pMALC2XE vector for NMR experiments; made in house; host or cells: E. coli BL21 (DE3)
Kind of series: Ligand-detected NMR, human SIN3A PAH2. Format: binding, H. sapiens. To be noted: 300 μM compound, 10 μM protein. As for the experimental part: Ligand-detected NMR experiments: all results were acquired using a 3 mm tube at 25° C. on a Bruker 600 MHz Avance II system equipped with a CPPTCI cryoprobe (Bruker BioSpin Corp.). In all experiments, the concentration of E6R was fixed at 300 μM (from a stock of 25 mM in deuterated DMSO) and the concentration of the protein at 10 μM. The volume of deuterated DMSO was kept constant (1.5%) in all tested samples. Right before the experiments, the compound and protein were diluted in 1×PBS containing 0.1% deuterated dithiothreitol (DTT) to a total volume of 200 μL. Samples were diluted by 5% with D2O for magnetic field lock. Spectra were acquired for ligand only, protein only, and ligand+protein. […] STD experiments [Mayer et al 2001] were acquired with 160 scans, with protein irradiation applied for 3 s at 0 ppm and −20 ppm for the on and off resonance experiments, respectively. On and off resonance spectra were collected and stored separately. One-dimensional CPMG-R2 edited experiments [Hajduk et al 1997] were collected for samples with and without proteins using seven CPMG delays (0, 25, 50, 100, 300, 500, and 800 ms) with four scans per delay. Proton spectra used to measure DLB and chemical shift perturbations in the absence and presence of the proteins were recorded with 16 scans using a recycle delay of 3 s. […]

The target in series [1] is T2, PAH2 domain of mouse M. musculus SIN3B (Mus musculus, UniProt Q62141, C241A).
T2 construct: M. musculus SIN3B PAH2 C241A (residues 148-252) expressing plasmid; GST (cleaved yes); made in house; host or cells: E. coli BL21 (DE3), minimal medium with 15N-ammonium chloride and 13C-glucose
Kind of series: Ligand-detected NMR, mouse SIN3B PAH2. Format: binding. As for the experimental part:
Expression of mouse ^13C/^15N SIN3B PAH2: the same M. musculus SIN3B PAH2 C241A (residues 148-252) expressing plasmid as reported by [Kumar et al 2011] was used here. The construct was overexpressed in E. coli BL21 (DE3) in 1 L of minimum medium supplemented with 1 g 15N-ammonium chloride (Cambridge Isotope Laboratories) and 2 g 13C-glucose (Cambridge Isotope Laboratories). Cells were grown at 37° C. to an OD of 0.8, cooled to 17° C., induced with 500 μM isopropyl-1-thio-D-galactopyranoside, incubated overnight at 17° C., collected by centrifugation, and stored at −80° C. 13C/15N-double labeled protein was purified as for other GST-fused constructs. The GST tag was cleaved as described above.
Ligand-detected NMR experiments: all results were acquired using a 3 mm tube at 25° C. on a Bruker 600 MHz Avance II system equipped with a CPPTCI cryoprobe (Bruker BioSpin Corp.). In all experiments, the concentration of E6R was fixed at 300 μM (from a stock of 25 mM in deuterated DMSO) and the concentration of the protein at 10 μM. The volume of deuterated DMSO was kept constant (1.5%) in all tested samples. […] Proton spectra used to measure DLB and chemical shift perturbations in the absence and presence of the proteins were recorded with 16 scans using a recycle delay of 3 s. […]

Series [2] can be described thus: Mouse liver microsome stability test. Format: in vitro ADME. To be noted: 1 mg/mL hepatic microsomes. The procedure:
Mouse liver microsome (MLM) half-life measurements were performed by Scripps Florida Pharmacology Core, according to their protocols [Lamberto et al 2017]. 1 mg/mL hepatic microsomes was used to test compounds.
To assess whether E6R may be suitable for testing the effect of HDAC inhibition via new mechanisms in mouse, the half-life […] and intrinsic clearance (Clint) of this compound was first measured using a standard microsomal metabolic assay where sunitinib was used as a control [Lamberto et al 2017]. In this setting, compound degradation is induced by concentrated microsomes isolated from mouse liver. In particular, these hepatic extracts contain the cytochrome P450 system that is primarily responsible for first pass metabolism in vivo.
A general note: Liver microsomes are vesicles of endoplasmic reticulum, rich in cytochrome P450 enzymes.

Series [3] has as its system HDAC-regulated genes in spleen and frontal cortex. The series is described as follows: Pilot RT-qPCR in spleen and frontal cortex of treated mice. Format: in vivo, mouse. To be noted: 5, 15 or 50 mg/kg, chronic. The procedure:
(§1) For the pilot RT-qPCR experiment, in addition to the vehicle condition (ethanol 100%/kolliphor/saline 0.9% in a proportion of 1:1:14.4; for the 50 mg/kg dose, 14 μL NaOH 1M were also added), three doses (mg/kg) of E6R were tested: 5, 15, and 50, with 4 (vehicle) or 3 (E6R) animals per group. A dose of 50 mg/kg was picked to conduct further experiments. For the RNA-Seq experiment, E6R was dissolved in a vehicle solution containing saline 55% v/v, DMSO 34% v/v, ethanol 5% v/v, kolliphor EL (Sigma-Aldrich, MO, USA) 5% v/v, NaOH 1M 1% v/v. The vehicle group received the same solution. Animals were injected daily by intraperitoneal (I.P.) injection with 5 μL/g of the solution (50 mg/kg of the drug or vehicle) at 11 am for 10 days. Animal wellness was verified by daily visual inspection and weighing. […] On the 11th day, animals were sacrificed by bleeding via heart puncture under carbon dioxide anesthesia. The brains were quickly removed and the bilateral frontal cortex (bregma 1.90 to 1.40 mm) was dissected followed by total RNA extraction. The spleens were also collected in the pilot RT-qPCR experiments.
Qiagen™ RNeasy mini kits (Valencia, CA) were used following the manufacturer's protocol. […] Purity of the RNA preparation was determined as the 260/280 nm ratio with expected values between 2 and 2.3. […]
Background: Real-time PCR tracks product formation cycle by cycle.

Series [4] in a line: Tolerability of chronic treatment in mice. Format: in vivo. The following applies: 50 mg/kg I.P. daily for 10 days. As for the experimental part:
as §1

SMILES strings stand for the structures. Entries after “also recorded” stand apart in the source; their conditions may differ.

T1 sequence (Q96ST3 301-390): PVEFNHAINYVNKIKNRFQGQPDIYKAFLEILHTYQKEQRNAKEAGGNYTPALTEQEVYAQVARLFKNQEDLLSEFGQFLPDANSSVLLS
T2 sequence (Q62141 148-252 C241A): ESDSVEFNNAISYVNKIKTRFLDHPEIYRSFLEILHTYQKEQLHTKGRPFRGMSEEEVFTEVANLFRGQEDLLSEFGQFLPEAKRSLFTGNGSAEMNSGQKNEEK

As for `C[C@@H](NC(=O)c1c(O)n2ccccc2nc1=O)c1ccccc1` [E6R, 4-hydroxy-2-oxo-N—((R)-1-phenylethyl)-3,4-dihydro-2H-pyrido[, 2-a]pyrimidine-3-carboxamide], the “binding to human SIN3A PAH2 by NMR” value at human SIN3A PAH2 domain is reported as “could bind; also recorded: virtually identical to those of yeast Sin3 PAH2”. In series [1], the “binding to mouse SIN3B PAH2 by NMR” value is recorded as “virtually identical to those of yeast Sin3 PAH2”. In addition, the “half-life in mouse liver microsomes” value in series [2] was determined as 17 min. In addition, the “expression levels of tested genes in spleen and frontal cortex” value in series [3] is reported as “able to change expression levels”. Besides, in series [4], the “tolerability, behavior and body mass” value was “No abnormal behavior or significant body mass decrease (>5%); also recorded: well-tolerated”.
